In this assay the test system is Modified anti-cocaine aptamer (DNA, aptamer) ATCTCGGGAGACAAGGATAAATCCTTCAATGAAGTGGGTCTCCC
In words: fluorescence dequenching. To be noted: apparent; displaced strand 5'-[…]-3'-dabcyl quencher oligo; cocaine 0-5 mM.

The values that follow come from article PMC3281204 (2011).

SMILES strings stand for the structures.

Consider `COC(=O)[C@H]1[C@@H](OC(=O)c2ccccc2)C[C@@H]2CC[C@H]1N2C`, for which the “K D” value amounted to 134.4 ± 7.2 µM.
